From patent US8951997B2, “Substituted isoquinoline derivative” (D. Western Therapeutics Institute, Inc., priority 2009, dated 2015)
Counter-ions that a name gives are not always drawn.

Experiments:
NG108-15 cells = assay: Neurite outgrowth promoting effect; format: cell-based; conditions: NG108-15 cells, 10, 3, 1, or 0.3 μmol/L, 24 hours, compared with cells cultured in the absence of the compound
Procedure: To examine the usefulness of the compound of the present invention as a therapeutic agent for neurodegenerative diseases, NG108-15 cells frequently used as a model of neurons were cultured in the presence of the compound of the present invention, which was then evaluated for its neurite outgrowth promoting effect. Examples 15 and 49 were used as test compounds.
Each test compound was dissolved in dimethyl sulfoxide and diluted to prepare a test compound solution with a predetermined concentration.
The NG108-15 cells (obtained from ATCC) were cultured in a Dulbecco's modified eagle's medium containing 5% fetal bovine serum and 1×HAT (hypoxanthine, aminopterin, and thymidine). The cells were inoculated at 12,000 cells/well to a 24-well plate and statically cultured at 37° C. for 12 hours in an environment of 5% CO2 and 95% air. Then, each test compound was added at a final concentration of 10, 3, 1, or 0.3 μmol/L. 24 hours later, the degree of neurite outgrowth was observed under an inverted microscope.

[1] = test system: rabbits (New Zealand White); assay: Ocular hypotensive effect in rabbits; format: in vivo, rabbit; conditions: Oryctolagus cuniculus, topical, 0.04 mL dropped to one eye, vehicle to contralateral eye, test compound solution concentration 10 (W/V), read-out: Maximum ocular hypotensive rate
Procedure: The compound of the present invention was administered to rabbits (New Zealand White, sex: male, 3 to 7 per group) and evaluated for its ocular hypotensive effect.
Each test compound was dissolved in a vehicle (1.04 g of sodium dihydrogen phosphate dihydrate and 0.5 g of sodium chloride dissolved in purified water and then adjusted to pH 7.0 with sodium hydroxide to make the total amount to 100 mL) to prepare a test compound solution with a concentration of 10 (W/V).
The intraocular pressures of the rabbits were measured using Tiolat TonoVet handheld tonometer immediately before administration of test compound. The test compound solution and the vehicle were dropped at a volume of 0.04 mL to one eye and the contralateral eye, respectively, and the intraocular pressures were measured over time in the same way as above. The rate of the intraocular pressure of the eye receiving the test compound solution to that of the eye receiving the vehicle was calculated as an ocular hypotensive rate.

[2] = test system: rabbits (New Zealand White); assay: Ocular hypotensive effect in rabbits; format: in vivo, rabbit; conditions: Oryctolagus cuniculus, topical, 0.04 mL dropped to one eye, vehicle to contralateral eye, test compound concentration of 2%, read-out: Maximum ocular hypotensive rate
[3] = test system: spontaneously hypertensive rats (SHR/Izm); assay: Blood pressure lowering effect in spontaneously hypertensive rats; format: in vivo, rat; conditions: male, intraperitoneal
Procedure: The compound of the present invention was intraperitoneally administered to spontaneously hypertensive rats (SHR/Izm, sex: male, 4 to 6 rats per group) and evaluated for its blood pressure lowering effect. Examples 32, 34, and 35 were used as test compounds.
Each test compound was dissolved in saline and diluted to prepare a test compound solution with a predetermined concentration.
The test drug was intraperitoneally administered at a dose of 10 mg/kg (except for 30 mg/kg for Example 34) to the animals (4 to 6 rats per group), and their blood pressures and pulse rates were measured over time using Softron Indirect Blood Pressure Meter BP-98A.

rats (SD) = assay: Blood pressure lowering effect in rats; format: in vivo, rat; conditions: male, intraperitoneal, 10 mg/kg
Procedure: The compound of the present invention was intraperitoneally administered to rats (SD, sex: male, 6 rats per group) and evaluated for its blood pressure lowering effect. Example 18 was used as a test compound.
The test compound was dissolved in saline and diluted to prepare a test compound solution with a predetermined concentration.
The test drug was intraperitoneally administered at a dose of 10 mg/kg to the rats (6 rats per group), and their blood pressures and pulse rates were measured over time using Softron Indirect Blood Pressure Meter BP-98A.

| SMILES | inhibition in vivo at 10 % [1] [%] | also measured |
| --- | --- | --- |
| Cc1c(S(=O)(=O)N2CCCNC[C@@H]2C)ccc2cnccc12 [Example 49, (S)-5-methyl-6-(2-methyl-1,4-diazepan-1-ylsulfonyl)isoquinoline] | ≥ 15 | degree of neurite outgrowth (NG108-15 cells): remarkable neurite outgrowth |
| C[C@@H]1CNCCCCN1S(=O)(=O)c1ccc2c(SCCN)nccc2c1 [Example 52, (R)-1-(2-aminoethylthio)-6-(2-methyl-1,4-diazocan-1-ylsulfonyl)isoquinoline trihydrochloride] | – | inhibition in vivo at 2 % [2]: ≥ 15% |
| C[C@H]1CCNCCN1S(=O)(=O)c1ccc2cnccc2c1 [Example 32, (S)-6-(7-methyl-1,4-diazepan-1-ylsulfonyl)isoquinoline dihydrochloride] | ≥ 15 | pulse rate ([3]; 10 mg/kg): increased; systolic blood pressure lowered compared with the value before administration ([3]; 10 mg/kg): 16% |
| C[C@@H]1CCNC[C@@H](C)N1S(=O)(=O)c1ccc2cnccc2c1 [Example 35, (2R,7R)-6-(2,7-dimethyl-1,4-diazepan-1-ylsulfonyl)isoquinoline dihydrochloride] | ≥ 15 | pulse rate ([3]; 10 mg/kg): increased |
| C[C@@H]1CCNCCN1S(=O)(=O)c1ccc2cnccc2c1 [Example 34, (R)-6-(7-methyl-1,4-diazepan-1-ylsulfonyl)isoquinoline dihydrochloride] | ≥ 15 | pulse rate ([3]; 30 mg/kg): increased |
| C[C@@H]1CNCCCN1S(=O)(=O)c1ccc2cnccc2c1 [Example 18, (R)-6-(2-methyl-1,4-diazepan-1-ylsulfonyl)isoquinoline dihydrochloride] | ≥ 15 | pulse rate (rats (SD)): increased; systolic blood pressure lowered compared with the value before administration (rats (SD); maximum lowering): ≥ 30% |
| C[C@@H]1CCNCCN(S(=O)(=O)c2ccc3cnccc3c2)C1 [Example 31, (R)-6-(7-methyl-1,4-diazocan-1-ylsulfonyl)isoquinoline dihydrochloride] | ≥ 15 | – |
| C[C@@H]1CNC/C=C\CN1S(=O)(=O)c1ccc2cnccc2c1 [Example 8, (R,Z)-6-(2-methyl-2,3,4,5-tetrahydro-1,4-diazocin-1(8H)-ylsulfonyl)isoquinoline dihydrochloride] | ≥ 15 | – |
| O=S(=O)(c1ccc2cnccc2c1)N1C[C@@H]2C[C@H]1CN2 [Example 7, 6-{(1S,4S)-2,5-diazabicyclo[2.2.1]heptan-2-ylsulfonyl}isoquinoline dihydrochloride] | ≥ 15 | – |
| O=S(=O)(c1ccc2cnccc2c1)N1CCNCC1 [Example 1, 6-(piperazin-1-ylsulfonyl)isoquinoline dihydrochloride] | ≥ 15 | – |
| C[C@@H]1CCCNCCN1S(=O)(=O)c1ccc2cnccc2c1 [Example 37, (R)-6-(8-methyl-1,4-diazocan-1-ylsulfonyl)isoquinoline dihydrochloride] | ≥ 15 | – |
| C[C@H]1CNCCCN1S(=O)(=O)c1ccc2cnccc2c1Br [Example 15, (S)-5-bromo-6-(2-methyl-1,4-diazepan-1-ylsulfonyl)isoquinoline dihydrochloride] | ≥ 15 | degree of neurite outgrowth (NG108-15 cells): remarkable neurite outgrowth |
| C[C@@H]1CCNCCN1S(=O)(=O)c1ccc2c(SCCN)nccc2c1 [Example 51, (R)-1-(2-aminoethylthio)-6-(7-methyl-1,4-diazepan-1-ylsulfonyl)isoquinoline trihydrochloride] | – | inhibition in vivo at 2 % [2]: ≥ 15% |
| C[C@@H]1CCNC[C@H](C)N1S(=O)(=O)c1ccc2cnccc2c1 [Example 36, (2S,7R)-6-(2,7-dimethyl-1,4-diazepan-1-ylsulfonyl)isoquinoline dihydrochloride] | ≥ 15 | – |
| N[C@@H]1CCN(S(=O)(=O)c2ccc3cnccc3c2)C1 [Example 2, (R)-6-(3-aminopyrrolidin-1-ylsulfonyl)isoquinoline dihydrochloride] | ≥ 15 | – |
| CC1CCNCCN1S(=O)(=O)c1ccc2cnccc2c1 (centres unmarked) [Example 17, 6-(7-methyl-1,4-diazepan-1-ylsulfonyl)isoquinoline dihydrochloride] | ≥ 15 | – |
| C[C@@H]1CNCCCN1S(=O)(=O)c1ccc2cnccc2c1Br [Example 29, (R)-5-bromo-6-(2-methyl-1,4-diazepan-1-ylsulfonyl)isoquinoline dihydrochloride] | ≥ 15 | – |
| CNCC(=O)N1CCCCN(S(=O)(=O)c2ccc3cnccc3c2)[C@H](C)C1 [Example 48, (R)-6-(4-sarcosyl-2-methyl-1,4-diazocan-1-ylsulfonyl)isoquinoline dihydrochloride] | 5 to 15 | – |
| CC[C@@H]1CNCCCCN1S(=O)(=O)c1ccc2cnccc2c1 [Example 20, (R)-6-(2-ethyl-1,4-diazocan-1-ylsulfonyl)isoquinoline dihydrochloride] | ≥ 15 | – |
| C[C@@H]1CNCCOCCN1S(=O)(=O)c1ccc2cnccc2c1 [Example 43, (R)-6-(5-methyl-1,4,7-oxadiazonan-4-ylsulfonyl)isoquinoline dihydrochloride] | ≥ 15 | – |
| C[C@@H]1CNCCCCN1S(=O)(=O)c1ccc2cnccc2c1[N+](=O)[O-] [Example 39, (R)-6-(2-methyl-1,4-diazocan-1-ylsulfonyl)-5-nitroisoquinoline dihydrochloride] | ≥ 15 | – |
| CC1CN(S(=O)(=O)c2ccc3cnccc3c2)CCCN1 (centres unmarked) [Example 16, 6-(3-methyl-1,4-diazepan-1-ylsulfonyl)isoquinoline dihydrochloride] | ≥ 15 | – |
| CN[C@H]1CCN(S(=O)(=O)c2ccc3cnccc3c2)C1 [Example 10, (S)-6-{3-(N-methylamino)pyrrolidin-1-ylsulfonyl}isoquinoline dihydrochloride] | 5 to 15 | – |
| O=S(=O)(c1ccc2cnccc2c1)N1CCOCC1 [Example 9, 6-(morpholin-1-ylsulfonyl)isoquinoline hydrochloride] | 5 to 15 | – |
| C[C@@H]1CCNCCCN1S(=O)(=O)c1ccc2cnccc2c1 [Example 38, (R)-6-(2-methyl-1,5-diazocan-1-ylsulfonyl)isoquinoline dihydrochloride] | ≥ 15 | – |
| O=S(=O)(c1ccc2cnccc2c1)N1CCCNCC1 [Example 3, 6-(1,4-diazepan-1-ylsulfonyl)isoquinoline dihydrochloride] | ≥ 15 | – |
| O=S(=O)(c1ccc2cnccc2c1)N1CCCCNCC1 [Example 21, 6-(1,4-diazocan-1-ylsulfonyl)isoquinoline dihydrochloride] | ≥ 15 | – |
| C[C@@H]1CNCCCCCN1S(=O)(=O)c1ccc2cnccc2c1 [Example 33, (R)-6-(2-methyl-1,4-diazonan-1-ylsulfonyl)isoquinoline dihydrochloride] | ≥ 15 | – |
| C[C@H]1CNCCN1S(=O)(=O)c1ccc2cnccc2c1 [Example 13, (S)-6-(2-methylpiperazin-1-ylsulfonyl)isoquinoline dihydrochloride] | ≥ 15 | – |
| C[C@H]1CNCCCN1S(=O)(=O)c1ccc2cnccc2c1 [Example 12, (S)-6-(2-methyl-1,4-diazepan-1-ylsulfonyl)isoquinoline dihydrochloride] | ≥ 15 | – |
